Data on 26 compounds can be found in patent US11767332B2, “Glucose-sensitive albumin-binding derivatives” (Novo Nordisk A/S, priority 2017, dated 2023).

Broadly, the Kd is a measure of binding affinity in units of concentration. Read a high Kd as lower affinity.

A short description of assay [1]: Alizarin red (ARS) assay, glucose binding affinity. The conditions noted are these: 20 mM phosphate buffer pH 7.4, room temperature. As to the method: (§1) The alizarin-red binding assay is a colorimetric assay used to determine the inhibition affinity of boronate compounds to glucose. The assay is based on a colour shift of alizarin-red upon binding to boronate, which shift can be followed by change in absorbance in the 330-340 nm region.
(§2) After 5 minutes of centrifugation at 4000 rpm, the plate is placed in a multi-well spectrometer (SpectraMax, Molecular Devices) for absorption detection.
(§3) The analysis is carried out at room temperature with absorption readings at 330, 340 and 520 nm, respectively. Data obtained for absorption versus concentration of boronate is then fitted (Prism 7, GraphPad) with a sigmoidal function to obtain the Kd value of boronate and ARS.
(§4) Upon complete dissolution of the compound, 200 μM of Alizarin red (ARS) is added to the solution. The ARS-boronate solution is then aliquoted into a 96 multiwell plate (black, flat and clear bottom) 1:1 with appropriate carbohydrate. In particular, D-glucose and L-lactate solutions are prepared in a 20 mM phosphate buffer pH 7.4 at these concentrations respectively: 1000, 500, 250, 100, 50, 25, 10, 5, 2.5, 1, 0.25, 0.1 mM and 2500, 1000, 500, 100, 50, 10, 5, 1, 0.5, 0.1, 0.05, 0.01 mM. The plate with ARS-boronate mixed with carbohydrate is incubated 20 minutes at room temperature. After 5 minutes of centrifugation at 4000 rpm the plate is placed in a multiwell spectrometer (Spectra Max, Molecular Devices) for absorption detection.
(§5) The analysis is carried out at room temperature with absorption readings at 330, 340 and 520 nm, respectively.

Assay [2] can be described thus: Alizarin red (ARS) assay, lactate binding affinity. Conditions: 20 mM phosphate buffer pH 7.4, room temperature, N.D. = not detectable. As to the method: as §1, §2, §3, §4, §5

Turning to `O=C(O)CN(CCNC(=O)c1cc(Cl)c2c(c1)B(O)OC2)C(=O)c1cc(Cl)c2c(c1)B(O)OC2` [Example 32, N-(4-Chloro-1-hydroxy-1,3-dihydrobenzo[c][1,2]oxaborole-6-carbonyl)-N-(2-(4-chloro-1-hydroxy-1,3-dihydrobenzo[c][1,2]oxaborole-6-carboxamido)ethyl)glycine], the Kd in assay [1] was determined as 3.2 mM; in assay [2], 60.6 mM.

Consider `O=C(O)CN=S(=O)(c1cc(OC(F)(F)F)cc(B(O)O)c1)c1cc(OC(F)(F)F)cc(B(O)O)c1` [Example 44, 2-((Bis(3-borono-5-(trifluoromethoxy)phenyl)(oxo)-λ6-sulfanylidene)amino)acetic acid], for which the Kd came to 0.8 mM in assay [1] and 41 mM in assay [2].

With `CS(=O)(=O)c1cc(C(=O)NCCN(CC(=O)O)C(=O)c2cc3c(c(S(C)(=O)=O)c2)COB3O)cc2c1COB2O` [Example 41, N-(1-Hydroxy-4-(methylsulfonyl)-1,3-dihydrobenzo[c][1,2]oxaborole-6-carbonyl)-N-(2-(1-hydroxy-4-(methylsulfonyl)-1,3-dihydrobenzo[c][1,2]oxaborole-6-carboxamido)ethyl)glycine], the Kd in assay [1] stood at 1.4 mM; in assay [2] it was 4.4 mM.

Regarding `O=C(O)CN(CCNC(=O)c1cc2c(cc1F)COB2O)C(=O)c1cc2c(cc1F)COB2O` [Example 7, N-(5-Fluoro-1-hydroxy-1,3-dihydrobenzo[c][1,2]oxaborole-6-carbonyl)-N-(2-(5-fluoro-1-hydroxy-1,3-dihydrobenzo[c][1,2]oxaborole-6-carboxamido)ethyl)glycine], the Kd is 1.5 mM in assay [1] and 24.1 mM in assay [2].

With `O=C(O)CN(CCNC(=O)c1ccc2c(c1F)B(O)OC2)C(=O)c1ccc2c(c1F)B(O)OC2` [Example 5, N-(7-Fluoro-1-hydroxy-1,3-dihydrobenzo[c][1,2]oxaborole-6-carbonyl)-N-(2-(7-fluoro-1-hydroxy-1,3-dihydrobenzo[c][1,2]oxaborole-6-carboxamido)ethyl)glycine], the Kd in assay [1] was 0.8 mM; in assay [2], 40 mM.

Consider `O=C(O)CN(CCNC(=O)c1cc2c(cc1F)B(O)OC2)C(=O)c1cc2c(cc1F)B(O)OC2` [Example 9, N-(6-Fluoro-1-hydroxy-1,3-dihydrobenzo[c][1,2]oxaborole-5-carbonyl)-N-(2-(6-fluoro-1-hydroxy-1,3-dihydrobenzo[c][1,2]oxaborole-5-carboxamido)ethyl)glycine], for which the values for the dissociation constant Kd in assay [1] and in assay [2] were 2.6 mM and 67.9 mM, respectively.

Take `O=C(O)CNC(=O)c1cc(B(O)O)cc(S(=O)(=O)c2cc(B(O)O)cc(S(F)(F)(F)(F)F)c2)c1` [Example 28, (3-Borono-5-((3-borono-5-(pentafluoro-λ^6-sulfanyl)phenyl)sulfonyl)benzoyl)glycine]: the Kd in assay [1] was 0.3 mM.

For the compound `O=C(O)CN(CCNC(=O)c1cc2c(c(S(=O)(=O)C(F)(F)F)c1)COB2O)C(=O)c1cc2c(c(S(=O)(=O)C(F)(F)F)c1)COB2O` [Example 42, N-(1-Hydroxy-4-((trifluoromethyl)sulfonyl)-1,3-dihydrobenzo[c][1,2]oxaborole-6-carbonyl)-N-(2-(1-hydroxy-4-((trifluoromethyl)sulfonyl)-1,3-dihydrobenzo-[c][1,2]oxaborole-6-carboxamido)ethyl)glycine], the affinity in assay [1], expressed as Kd, was 1.1 mM.

With `O=C(NCC[C@H](NC(=O)c1ccc(B(O)O)c(F)c1)C(=O)O)c1ccc(B(O)O)c(F)c1` [Example 4, (S)-2,4-bis(4-borono-3-fluorobenzamido)butanoic acid], the Kd in assay [1] was 2.6 mM; in assay [2] it was 6.5 mM.

For `O=C(O)CN(CCNC(=O)c1cc2c(cc1C(F)(F)F)COB2O)C(=O)c1cc2c(cc1C(F)(F)F)COB2O` [Example 37, N-(1-Hydroxy-5-(trifluoromethyl)-1,3-dihydrobenzo[c][1,2]oxaborole-6-carbonyl)-N-(2-(1-hydroxy-5-(trifluoromethyl)-1,3-dihydrobenzo[c][1,2]oxaborole-6-carboxamido)ethyl)glycine], the results for the Kd in assay [1] and in assay [2] were 4.2 mM and 13 mM, respectively.

With `O=C(NCCCC[C@H](NC(=O)c1cc2c(cc1F)B(O)OC2)C(=O)O)c1cc2c(cc1F)B(O)OC2` [Example 10, N^2,N^6-Bis(6-fluoro-1-hydroxy-1,3-dihydrobenzo[c][1,2]oxaborole-5-carbonyl)-L-lysine], the Kd in assay [1] amounted to 3.2 mM.

Turning to `O=C(NC[C@H](NC(=O)c1ccc2c(c1F)B(O)OC2)C(=O)O)c1ccc2c(c1F)B(O)OC2` [Example 15, (S)-2,3-Bis(7-fluoro-1-hydroxy-1,3-dihydrobenzo[c][1,2]oxaborole-6-carboxamido)propanoic acid], the dissociation constant (Kd) came out at 0.5 mM in assay [1] and 10 mM in assay [2].

`O=C(O)CCC(=O)N1C[C@@H](NC(=O)c2cc3c(c(C(F)(F)F)c2)COB3O)[C@H](NC(=O)c2cc3c(c(C(F)(F)F)c2)COB3O)C1` [Example 29, 4-[(3R,4R)-3,4-bis[[1-hydroxy-4-(trifluoromethyl)-3H-2,1-benzoxaborole-6-carbonyl]amino]pyrrolidin-1-yl]-4-oxobutanoic acid]: binding in assay [1] was put at a Kd of 2.3 mM.

As for `O=C(O)CNC(=O)c1cc(B(O)O)cc(S(=O)(=O)c2cccc(B(O)O)c2)c1` [Example 39, (3-Borono-5-((3-boronophenyl)sulfonyl)benzoyl)glycine], the Kd in assay [1] stood at 2.4 mM; in assay [2], 27 mM.

Take `O=C(O)CNC(=O)c1cc(B(O)O)cc(S(=O)(=O)c2cc(F)cc(B(O)O)c2)c1` [Example 24, (3-Borono-5-((3-borono-5-fluorophenyl)sulfonyl)benzoyl)glycine]: the dissociation constant Kd in assay [1] was determined as 1.2 mM; in assay [2], 34 mM.

As for `O=C(O)CN(CCNC(=O)c1cc(F)c2c(c1)B(O)OC2)C(=O)c1cc(F)c2c(c1)B(O)OC2` [Example 8, N-(4-Fluoro-1-hydroxy-1,3-dihydrobenzo[c][1,2]oxaborole-6-carbonyl)-N-(2-(4-fluoro-1-hydroxy-1,3-dihydrobenzo[c][1,2]oxaborole-6-carboxamido)ethyl)glycine], the Kd in assay [1] was 2.7 mM; in assay [2] it was 34 mM.

Regarding `O=C(O)c1cc(CNC(=O)c2ccc(B(O)O)c(F)c2)cc(CNC(=O)c2ccc(B(O)O)c(F)c2)c1` [Example 2, 3,5-Bis((4-borono-3-fluorobenzamido)methyl)benzoic acid], the results for the dissociation constant (Kd) in assay [1] and in assay [2] were 3.4 mM and 5.4 mM, respectively.

Consider `O=C(O)c1cc(B(O)O)cc(C(=O)c2cc(B(O)O)c(F)cc2F)c1` [Example 13, 3-Borono-5-(5-borono-2,4-difluorobenzoyl)benzoic acid], for which the Kd worked out at 0.3 mM in assay [1] and 4 mM in assay [2].

With `O=C(O)CNC(=O)c1cc(B(O)O)cc(C(F)(F)c2cc(B(O)O)cc(C(F)(F)F)c2)c1` [Example 18, (3-Borono-5-((3-borono-5-(trifluoromethyl)phenyl)difluoromethyl)benzoyl)glycine], the values for the Kd in assay [1] and in assay [2] were 0.4 mM and 13 mM, respectively.

Consider `O=C(NCCCC[C@H](NC(=O)c1cc2c(cc1F)B(O)OC2)C(=O)O)c1ccc(B(O)O)cc1F` [Example 14, N^6-(4-Borono-2-fluorobenzoyl)-N^2-(6-fluoro-1-hydroxy-1,3-dihydrobenzo[c][1,2]oxaborole-5-carbonyl)-L-lysine], for which the results for the Kd in assay [1] and in assay [2] were 3.2 mM and 16 mM, respectively.

Take `O=C(O)CCC(=O)N1C[C@H](NC(=O)c2ccc3c(c2F)B(O)OC3)[C@@H](NC(=O)c2ccc3c(c2F)B(O)OC3)C1` [Example 21, 4-((3S,4S)-3,4-Bis(7-fluoro-1-hydroxy-1,3-dihydrobenzo[c][1,2]oxaborole-6-carboxamido)pyrrolidin-1-yl)-4-oxobutanoic acid]: the Kd in assay [1] is 2.6 mM.

As for `O=C(O)c1cc(B(O)O)c(F)c(S(=O)(=O)c2ccc(F)c(B(O)O)c2)c1` [Example 11, 3-Borono-5-((3-borono-4-fluorophenyl)sulfonyl)-4-fluorobenzoic acid], the figures for the equilibrium dissociation constant (Kd) in assay [1] and in assay [2] were 1.8 mM and 17 mM, respectively.

For `O=C(O)CN=S(=O)(c1cc2c(c(C(F)(F)F)c1)COB2O)c1cc2c(c(C(F)(F)F)c1)COB2O` [Example 38, 2-((Bis(1-hydroxy-4-(trifluoromethyl)-1,3-dihydrobenzo[c][1,2]oxaborol-6-yl)(oxo)-λ6-sulfanylidene)amino)acetic acid], binding in assay [1] was characterised by a dissociation constant (Kd) of 3.7 mM.

`O=C(NC[C@H](NC(=O)c1ccc2c(c1)B(O)OC2)C(=O)O)c1ccc2c(c1)B(O)OC2` [Example 40, (S)-2,3-Bis(1-hydroxy-1,3-dihydrobenzo[c][1,2]oxaborole-6-carboxamido)propanoic acid] displayed a dissociation constant Kd in assay [1] of 2 mM.

Regarding `O=C(NC[C@H](NC(=O)c1cc(F)c2c(c1)B(O)OC2)C(=O)O)c1cc(F)c2c(c1)B(O)OC2` [Example 17, (S)-2,3-Bis(4-fluoro-1-hydroxy-1,3-dihydrobenzo[c][1,2]oxaborole-6-carboxamido) propanoic acid], in assay [1], the equilibrium dissociation constant (Kd) stood at 1.6 mM.

For the compound `O=C(O)c1cc(CNC(=O)c2ccc3c(c2F)B(O)OC3)cc(CNC(=O)c2ccc3c(c2F)B(O)OC3)c1` [Example 6, 3,5-Bis((7-fluoro-1-hydroxy-1,3-dihydrobenzo[c][1,2]oxaborole-6-carboxamido)methyl) benzoic acid], binding in assay [1] was characterised by a dissociation constant (Kd) of 1.1 mM.
